In patent publication US11851445B2, “Compounds and uses thereof” (Foghorn Therapeutics Inc., priority 2020, dated 2023):
“Also recorded” adds a separate entry of the source.

How the values were obtained:
BRD9 = target: T1, BRD9 (Homo sapiens, UniProt Q9H8M2); assay: BRD9 degradation in synovial sarcoma tumor in vivo, western blot (Example 12); design: degradation endogenous BRD9 protein in two synovial sarcoma cell lines; endogenous in cells; host or cells: SYO1 (SYO-1) synovial sarcoma cells; conditions: 1 mg/kg, i.p., 4 weeks; tumors 8, 72 and 168 hours post last dose; FIG. 15
T1 sequence (Q9H8M2 1-597): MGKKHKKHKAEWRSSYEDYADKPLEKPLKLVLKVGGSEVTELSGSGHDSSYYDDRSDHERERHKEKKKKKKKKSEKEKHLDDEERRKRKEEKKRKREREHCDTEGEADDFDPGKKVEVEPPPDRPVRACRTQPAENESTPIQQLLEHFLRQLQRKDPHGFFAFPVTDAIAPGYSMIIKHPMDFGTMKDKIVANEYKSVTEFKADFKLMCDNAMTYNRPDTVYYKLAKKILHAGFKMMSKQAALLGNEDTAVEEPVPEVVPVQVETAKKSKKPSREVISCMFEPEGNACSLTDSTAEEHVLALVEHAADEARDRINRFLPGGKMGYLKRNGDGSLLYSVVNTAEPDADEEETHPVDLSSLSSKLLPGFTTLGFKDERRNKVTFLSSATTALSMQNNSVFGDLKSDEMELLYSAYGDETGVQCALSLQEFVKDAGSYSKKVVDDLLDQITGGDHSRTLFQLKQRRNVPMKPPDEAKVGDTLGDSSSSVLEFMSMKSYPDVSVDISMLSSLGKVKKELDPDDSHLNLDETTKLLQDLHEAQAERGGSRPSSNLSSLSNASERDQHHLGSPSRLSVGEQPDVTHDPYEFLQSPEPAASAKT
Procedure: Method: Mice were treated with D1, 1 mg/kg, i.p. for 4 weeks. Mice were then euthanized, and tumors were collected at 8 hours, 72 hours, and 168 hours post last dose. Tumors were lysed with 1× RIPA lysis buffer (Boston BioProducts, BP-115D) with protease and phosphatase protein inhibitor (Roche Applied Science #04906837001 & 05892791001). Equal amounts of lysate (30 μg) were loaded in 4-12% Bis-Tris Midi Protein Gels in 1×MOPS buffer; samples ran at 120 V for 120 minutes. Protein was transferred to membrane with TransBlot at 250 mA for 150 minutes, and then membranes were blocked with Odyssey blocking buffer for 1 hour at room temperature. Membranes were hybridized overnight in cold room with primary antibodies. Images acquired using Li-COR imaging system (Li-COR Biotechnology, Lincoln, Nebr.).

[1] = test system: SYO-1 human biphasic synovial sarcoma tumor; assay: SYO-1 xenograft tumor growth in NOD SCID mice; format: in vivo; conditions: 1 mg/kg, i.p., daily, 3 weeks; FIG. 14
Procedure: Method: NOD SCID mice (Beijing Anikeeper Biotech, Beijing) were inoculated subcutaneously on the right flank with the single cell suspension of SYO-1 human biphasic synovial sarcoma tumor cells (5×106) in 100 μL Dulbecco's Modified Eagle Medium (DMEM) with 10% fetal bovine serum (FBS). The mice were randomized into either control group [10% dimethyl sulfoxide (DMSO), 40% polyethylene glycol (PEG400) and 50% water], or treatment group D1 when the mean tumor size reached about 117 mm^3. Mice were dosed daily through intraperitoneal (i.p.) route over the course of 3 weeks. All dose volumes were adjusted by body weights in terms of mg/kg.

SYO1 cells [2] = assay: Cell cycle analysis, Click-iT Plus EdU flow cytometry; format: cell-based, human; conditions: 200 nM or 1 μM, 8 or 13 days; compared to DMSO and lenalidomide
Procedure: (§1) Procedure: SYO1 cells were treated for 8 or 13 days with DMSO, a BRD9 degrader (Compound 1) at 200 nM or 1 μM, or an E3 ligase binder (lenalidomide) at 200 nM. Compounds were refreshed every 5 days. Cell cycle analysis was performed using the Click-iT™ Plus EdU Flow Cytometry Assay (Invitrogen). The apoptosis assay was performed using the Annexin V-FITC Apoptosis Detection Kit (Sigma A9210). Assays were performed according to the manufacturer's protocol.

[3] = test system: non-synovial control cancer cell lines (293T, A549, G401); assay: Growth of non-synovial control cancer cell lines (Example 2); format: cell-based; conditions: FIGS. 4, 5, 6
Procedure: (§2) Cells were treated with DMSO or the BRD9 degrader, Compound 1, at indicated concentrations, and proliferation was monitored from day 7 to day 14 by measuring confluency over time using an IncuCyte live cell analysis system (FIG. 4). Growth medium and compounds were refreshed every 3-4 days.
(§3) Cells were seeded into 12-well plates and treated with DMSO, 1 μM BRD9 inhibitor, Compound 2 (also known as BI-7273, see Martin et al, J Med Chem. 59(10):4462-4475 (2016); see structure of compound 2 below), or 1 μM BRD9 degrader, Compound 1.
(§4) The number of cells was optimized for each cell line. Growth medium and compounds were refreshed every 3-5 days. SYO1, Yamato, A549, 293T and HS-SY-II cells were fixed and stained at day 11. ASKA cells were fixed and stained at day 23. Staining was done by incubation with crystal violet solution (0.5 g Crystal Violet, 27 ml 37% Formaldehyde, 100 mL 10×PBS, 10 mL Methanol, 863 dH20 to 1 L) for 30 min followed by 3× washes with water and drying the plates for at least 24 h at room temperature. Subsequently plates were scanned on an Odyssey CLx Imaging system (FIG. 5).
(§5) Cells were seeded into 96-well ultra-low cluster plate (Costar, #7007) in 200 μL complete media and treated at day 2 with DMSO, Staurosporin, or BRD9 degrader, Compound 1, at indicated doses (FIG. 2C). Media and compounds were changed every 5 d and cell colonies were imaged at day 14.

[4] = test system: non-synovial control cancer cell lines (RD, HCT116, and Calu6); assay: Growth of non-synovial control cancer cell lines, crystal violet, day 14 (Example 3); format: cell-based; conditions: FIG. 8
Procedure: (§6) Procedure: Cells were seeded into 6-well or 12-well plates and were treated daily with a BRD9 degrader (Compound 1), a bromo-domain BRD9 binder (Compound 2), E3 ligase binder (lenalidomide), DMSO, or staurosporin (positive control for cell killing), at indicated concentrations. The number of cells was optimized for each cell line. Growth media was refreshed every 5 days. By day 14, medium was removed, cells were washed with PBS, and stained using 500 μL of 0.005% (w/v) crystal violet solution in 25% (v/v) methanol for at least 1 hour at room temperature. Subsequently plates were scanned on an Odyssey CLx Imaging system.

[5] = test system: synovial sarcoma cell lines (SYO1, Yamato, HS-SY-II, and ASKA); assay: Growth of synovial sarcoma cell lines (Example 2: confluency, crystal violet, colonies); format: cell-based; conditions: FIGS. 4, 5, 6
Procedure: as §2, §3, §4, §5

[6] = test system: synovial sarcoma cell lines (SYO1, HS-SY-II, and ASKA); assay: Growth of synovial sarcoma cell lines, crystal violet, day 14 (Example 3); format: cell-based
Procedure: as §6

SYO1 cells [7] = assay: Apoptosis assay, Annexin V-FITC; format: cell-based, human; conditions: 8 days; compared to DMSO controls
Procedure: as §1

| Compound | BRD9 level in tumor (BRD9) | tumor growth [1] | numbers of cells in the S-phase of the cell cycle (SYO1 cells [2]) | growth of the cells [3] | growth of the cells [4] | growth of the cells [5] | growth of the cells ([6]; SYO1, HS-SY-II, ASKA, day 14, FIG. 7) | growth inhibition compared with the other treatments ([6]; all synovial cell lines) | numbers of early- and late-apoptotic cells (SYO1 cells [7]) |
| --- | --- | --- | --- | --- | --- | --- | --- | --- | --- |
| COc1cc(-c2cn(C)c(=O)c3cnc(N4CCC4)cc23)cc(OC)c1CN1CCC(CN2CCC3(CC2)CN(c2ccc4c(c2)C(=O)N(C2CCC(=O)NC2=O)C4)C3)CC1 (racemic) [Compound D1, 3-[6-(7-[[1-([4-[6-(azetidin-1-yl)-2-methyl-1-oxo-2,7-naphthyridin-4-yl]-2,6-dimethoxyphenyl]methyl)piperidin-4-yl]methyl]-2,7-diazaspiro[3.5]nonan-2-yl)-1-oxo-3H-isoindol-2-yl]piperidine-2,6-dione] | complete degradation of BRD9 target up to 168 hours after dose; also recorded: BRD9 inhibition | tumor growth inhibition | – | – | – | – | – | – | – |
| COc1cc(-c2cn(C)c(=O)c3cnccc23)cc(OC)c1CN(C)CC(=O)NCCOCCOCCNc1cccc2c1C(=O)N(C1CCC(=O)NC1=O)C2=O (stereo not drawn) [Compound 1, dBRD9] | – | – | reduced numbers of cells in the S-phase | does not result in inhibition of the growth | did not result in inhibition of the growth | inhibition of the growth of the cells | inhibition of the growth of the cells | most significant growth inhibition | increased numbers of early- and late-apoptotic cells |
